# Results published in paper PMC10252891 (Cells, 2023).
# “And” between values parts separate entries of the source, which are not always exact repeats. Equal values may be shown once.
# Columns and labels:
# [1] = test system: PTZ-induced epileptiform brain discharges in zebrafish larvae; parameters: method as in PMID 34768849; conditions: pimpinellin; cited from earlier work
# [2] = cited from earlier work
# [3] = LC-MS/MS quantification of whole-body uptake in immersed zebrafish larvae
# Protocol: After immersion larvae were plated in 1% BSA for 15 s and washed thoroughly by shaking to remove all compounds from the larvae surface. […] For quantification, six larvae were pooled before homogenization. Three experiments were carried out in independent days.
# These were homogenized with the Ultrasonic Processor UP50H (Hielscher): 1 cycle—60% amplitude. The run consisted of two cycles of 15 s with a rest of 50 s in ice for each sample. […] To 100 µL of homogenate 200 µL of the internal standard (IS) Rolipram (Sigma Aldrich, Buchs, Switzerland) (20 ng/mL) for the positive MS experiment, and VPA d-6 (Sigma Aldrich, Buchs, Switzerland) (50 µg/mL) for the negative MS experiment were added. Samples were vortexed for 10 s and then centrifuged at 12,000 rpm for 10 min at 4 °C. After centrifugation, 150 µL of supernatant was transferred into LC-MS vials already containing 120 µL of MilliQ water. Then, 10 µL was injected into the LC-MS/MS system.
# A hybrid triple quadrupole 4000 QTRAP mass spectrometer (AB Sciex Concord, ON, Canada) was used with a Shimadzu UFLC (Shimadzu Corporation, Kyoto, Japan) with a cooled auto-sampler. The sample temperature was maintained at 4 °C in the auto-sampler prior to analysis. The LC column was Synergi 4 µm Fusion-RP 80Å C18 50 × 2 mm, Phenomenex, maintained at 45 °C. The system was operated first in positive and after in negative mode with the same elution mobile phases and gradient method. Mobile phases were as follows: water with 0.1% formic acid (solvent A) and methanol with 0.1% formic acid (solvent B). […] The flow rate was 0.80 mL/min. Peaks were integrated, and the analyst software version 1.6.2 (AB Sciex Concord, ON, Canada) was used for quantification. […] Negative mode: Valproic acid m/z 143→143, (IS: Valproic Acid-d6 149→149).
# [4] = treated humans; cited from earlier work
# [5] = test system: PTZ-induced seizure-like movements in zebrafish larvae; assay: PTZ-induced seizure-like locomotor tracking in zebrafish larvae; assay type: in vivo, Danio rerio; conditions: for decrease of actinteg values of PTZ-treated larvae: 1 h pre-immersion; for decrease of actinteg values of PTZ-treated larvae / decrease of locomotor activity of PTZ-treated larvae: 20 mM PTZ, vs vehicle-PTZ group
# Protocol: For immersion 6 days post-fertilization (dpf) and for all measurements, 7-dpf larvae were used. The zebrafish experiments described here were approved by the Local Ethics Committee in Lublin (license no: 109/2018).
# All compounds were dissolved in dimethyl sulfoxide (DMSO) and diluted in an embryo medium to achieve a final DMSO concentration of 1% w/v. Embryo medium prepared with DMSO to a final concentration of 1% w/v served as vehicle control (VHC). PTZ (Sigma-Aldrich, Poznań, Poland) was dissolved at a concentration of 40 mM in the embryo medium. The control anticonvulsant agent used in this study was VPN (Sigma-Aldrich, Poznań, Poland).
# (§1) 100 µL of embryo medium or 100 µL of a 40 mM PTZ solution was added to obtain a final concentration of 20 mM of PTZ in each well [30]. Larvae were habituated for 5 min in a dark chamber of an automated tracking device (ZebraBox system; Viewpoint, Lyon, France). Then, the locomotor activity without proconvulsant treatment was measured in the dark. The total locomotor activity was quantified using ZebraLab software (Viewpoint, Lyon, France) and was expressed in “actinteg”’ units, which is the sum of all pixel changes detected during the period defined for the experiment. After the evaluation of preincubated larvae movements, PTZ solution was added, and the locomotor behavior was measured for 30 min for each condition. All tracking experiments were performed at least in triplicate.
# [6] = mammals; cited from earlier work
# [7] = test system: zebrafish larvae; assay: Locomotor activity of zebrafish larvae without proconvulsant treatment; assay type: in vivo, Danio rerio
# Protocol: as §1
# [8] = molecular target: T1, LAT1 (Homo sapiens, UniProt Q01650); assay: [3H]-L-leucine uptake inhibition in MDST8-LAT1 cells; assay type: cell-based; conditions: LAT1 transfected cells
# T1 construct: expressed in transfected cells; host or cells: MDST8-LAT1 cells
# T1 sequence (Q01650 whole entry): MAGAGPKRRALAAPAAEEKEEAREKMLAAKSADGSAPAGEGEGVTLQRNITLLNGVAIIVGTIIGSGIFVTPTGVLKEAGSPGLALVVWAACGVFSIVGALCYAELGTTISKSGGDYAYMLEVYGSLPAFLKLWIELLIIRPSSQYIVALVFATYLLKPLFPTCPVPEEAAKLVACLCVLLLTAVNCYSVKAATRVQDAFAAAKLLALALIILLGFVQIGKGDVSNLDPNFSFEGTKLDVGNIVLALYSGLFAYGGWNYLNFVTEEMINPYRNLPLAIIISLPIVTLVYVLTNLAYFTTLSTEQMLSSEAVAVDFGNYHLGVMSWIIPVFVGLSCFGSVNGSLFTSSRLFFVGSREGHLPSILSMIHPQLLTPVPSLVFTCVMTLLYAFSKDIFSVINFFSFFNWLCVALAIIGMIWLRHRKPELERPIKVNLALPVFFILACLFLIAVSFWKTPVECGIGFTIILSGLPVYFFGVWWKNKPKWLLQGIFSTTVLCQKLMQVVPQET
# T1 sequence (P08195 102-630 partner): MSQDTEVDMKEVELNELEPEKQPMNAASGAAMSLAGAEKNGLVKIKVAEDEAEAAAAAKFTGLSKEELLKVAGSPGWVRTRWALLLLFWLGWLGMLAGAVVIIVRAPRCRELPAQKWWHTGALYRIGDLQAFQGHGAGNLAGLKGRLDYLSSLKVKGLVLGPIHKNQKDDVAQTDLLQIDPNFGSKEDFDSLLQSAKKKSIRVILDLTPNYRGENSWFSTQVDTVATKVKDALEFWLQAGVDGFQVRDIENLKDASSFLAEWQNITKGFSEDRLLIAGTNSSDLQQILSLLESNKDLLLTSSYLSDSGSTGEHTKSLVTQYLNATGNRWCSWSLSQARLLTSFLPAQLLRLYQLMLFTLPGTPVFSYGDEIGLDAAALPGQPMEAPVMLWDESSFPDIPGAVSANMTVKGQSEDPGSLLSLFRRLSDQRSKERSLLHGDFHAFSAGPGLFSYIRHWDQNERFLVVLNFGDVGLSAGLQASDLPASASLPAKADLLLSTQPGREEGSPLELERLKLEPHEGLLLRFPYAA
# Protocol: [3H]-L-Leucine uptake assay
# [3H]-L-Leucine uptake assay was performed as previously described [Yan et al., 2021]. Cells were seeded in 96-well plates with opaque bottom (Corning, 353296) at 40-60% confluency, allowing them to attach for 48 hours in a fully supplemented media. Cells were preincubated with different concentrations of […]
# Solution (HBSS) containing 125 mM choline-Cl, 25 mM HEPES, 4.8 mM KCl, 1.2 mM MgSO4, 1.2 mM KH2PO4, 1.3 mM CaCl2 and 5.6 mM D-glucose (pH 7.4) and further incubated with the same solution for 7 minutes at 37 °C. [3H]-l-Leucine uptake was assessed in the same solution containing 10 nM “hot” [3H]-L-Leucine (60 Ci/mmol) (Anawa, 0140A-1) + 30 μM “cold” L-leucine. In case of 5 μM JPH203, the same procedure was followed without PTX preincubation. After 3 minutes, the solution was removed, and the cells were washed with ice-cold Na+-free HBSS to terminate the uptake. Cells were lysed with scintillation solvent MicroScint-20 (Perkin-Elmer Life Sciences, 6013621) and the radioactivity was measured with a scintillation counter (TopCount NXT, Perkin-Elmer Life Sciences).
# *Yan R, Li Y, Müller J, Zhang Y, Singer S, Xia L, Zhong X, Gertsch J, Altmann KH, Zhou Q. Mechanism of substrate transport and inhibition of the human LAT1-4F2hc amino acid transporter. Cell Discov.
# [9] = test system: zebrafish larvae whole-body metabolites; assay: Amino acid and neurotransmitter quantification (targeted metabolomics) in zebrafish larvae whole-body; assay type: in vivo, Danio rerio; conditions: PTX 20 μM, 18 h immersion
# Protocol: For quantification, six larvae were pooled before homogenization. Three experiments were carried out in independent days.
# The samples were prepared as described before. To 80 µL of the homogenate 320 µL of MeOH was added to precipitate proteins at a volume dilution […]. After centrifugation at max speed (20,000 rpm) at 4 °C for 10 min, 50 µL were diluted with 200 µL of 1:1 MeOH:1 mM EDTA in Water (Dil 1:4). Samples were centrifuged at max speed at 4 °C for 10 min, and 50 µL were taken into the LC-MS insert vials, 5 µL of the internal standard mix (ethanolamine_d4, dopamine_d4, methionine_d3, serine_d3, lysine_d4 glycine_d5, and acetylcholine_d4) was added to all vials.
# The LC column used was Imtakt Intrada amino acid WAA34, 100 × 3 mm; 3 µm, maintained at 35 °C. The system was operated in positive mode. Mobile phases were: 100 mM Ammonium formate in water (mobile phase A) and 95:5:0.3 acetonitrile:water:formic acid (mobile phase B).
# [10] = test system: PTZ-induced epileptiform brain discharges in zebrafish larvae; assay: Local field potential (LFP) recordings, power spectral density (PSD) analysis, PTZ-induced seizure model; assay type: in vivo, Danio rerio; conditions: PTX 20 µM, 18 h immersion, mean PSD over the 1–50 Hz region, 20 mM PTZ
# Protocol: Non-invasive local field potential (LFP) was recorded from the optic tectum of zebrafish as described before. Before the recording, the treated larvae were immersed for 15 min in 100 µL of VHC or 20 mM PTZ. After immersion, a larva was immobilized in 2% low melting agarose (Invitogen, Waltham, MA, USA) and the signal electrode (Hilgenberg, Germany) was placed on the surface of the head above the optic tectum. The differential signal between the recording electrode and the reference electrode was amplified 10,000 times by EXT-02F/2 extracellular amplifier (NPI Electronic, Tamm, Germany), band pass filtered at 3–300 Hz and digitized at 2 kHz via a PCI-6251 interface (National Instruments, Austin, Texas, USA) with WinEDR (John Dempster, University of Strathclyde, Glasgow, Scotland). A HumBug noise eliminator (Quest Scientific, Hofheim, Germany) was used to remove 50–60 Hz noise. The recordings and the quantification of the signal from epileptiform brain discharges by Welch’s power spectral density (PSD) analysis were performed as described before.
compound,measurement,setting,value
"COc1c(OC)c2occc2c2oc(=O)ccc12 [Pimpinellin, pimpinellin]",decrease of normalized PSD,[1],81%
"CCCC(CCC)C(=O)O [VPA, valproic acid]",solubility in aqueous solutions,[2],1200 µg/mL
"CCCC(CCC)C(=O)O [VPN, sodium valproate]",% Absorbed,"[3]; VPN/VPA 100 µM, 1 h immersion",~ 6%
same,% Absorbed,"[3]; VPN/VPA 100 µM, 1 h immersion, listed as VPN/VPA",6.5%
same,% Absorbed,"[3]; VPN/VPA 500 µM, 1 h immersion",2.3%
same,% Absorbed,"[3]; VPN/VPA 1 mM, 1 h immersion",3.3%
same,% Absorbed,"[3]; VPN/VPA 5 mM, 5 min immersion",0.77%
same,% Absorbed,"[3]; VPN/VPA 5 mM, 5 min immersion, listed as VPN/VPA",0.8%
same,% Absorbed,"[3]; VPN/VPA 5 mM, 30 min immersion",1.44%
same,% Absorbed,"[3]; VPN/VPA 5 mM, 30 min immersion, listed as VPN/VPA",1.4%
same,% Absorbed,"[3]; VPN/VPA 5 mM, 1 h immersion",2.52%
same,% Absorbed,"[3]; VPN/VPA 5 mM, 1 h immersion, listed as VPN/VPA",2.5%
same,% Absorbed,"[3]; VPN/VPA 5 mM, 18 h immersion (metabolism)",0.76% (metabolism)
same,% Absorbed,"[3]; VPN/VPA 5 mM, without larvae",100%
same,Measured concentration,"[3]; VPN/VPA 5 mM, without larvae","734,333 ± 5859 ng/g and 5092 ± 40.6 µM"
same,concentration at 1 h,"[3]; zebrafish (Danio rerio) larvae, whole-body larvae homogenate, other: immersion in compound-containing medium, 100 µM, Measured concentration in larvae whole-body, VPN/VPA 100 µM, 1 h immersion",941 ng/g and 6.5 µM
same,concentration at 1 h,"[3]; zebrafish (Danio rerio) larvae, whole-body larvae homogenate, other: immersion in compound-containing medium, 500 µM, Measured concentration in larvae whole-body, VPN/VPA 500 µM, 1 h immersion",1680 ng/g and 11.6 µM
same,concentration at 1 h,"[3]; zebrafish (Danio rerio) larvae, whole-body larvae homogenate, other: immersion in compound-containing medium, 1 mM, Measured concentration in larvae whole-body, VPN/VPA 1 mM, 1 h immersion",4740 ng/g and 32.9 µM
same,concentration at 5 min,"[3]; zebrafish (Danio rerio) larvae, whole-body larvae homogenate, other: immersion in compound-containing medium, 5 mM, Measured concentration in larvae whole-body, VPN/VPA 5 mM, 5 min immersion",5600 ng/g and 38.8 µM
same,concentration at 30 min,"[3]; zebrafish (Danio rerio) larvae, whole-body larvae homogenate, other: immersion in compound-containing medium, 5 mM, Measured concentration in larvae whole-body, VPN/VPA 5 mM, 30 min immersion",10400 ng/g and 71.9 µM
same,concentration at 1 h,"[3]; zebrafish (Danio rerio) larvae, whole-body larvae homogenate, other: immersion in compound-containing medium, 5 mM, Measured concentration in larvae whole-body, VPN/VPA 5 mM, 1 h immersion",18200 ng/g
same,concentration at 18 h,"[3]; zebrafish (Danio rerio) larvae, whole-body larvae homogenate, other: immersion in compound-containing medium, 5 mM, Measured concentration in larvae whole-body, VPN/VPA 5 mM, 18 h immersion",5470 ng/g and 38 µM
same,concentration at 1 h,"[3]; zebrafish (Danio rerio) larvae, whole-body larvae homogenate, other: immersion in compound-containing medium, 5 mM, concentration in larvae whole-body, VPN 5 mM, 1 h",18200 ± 400 ng/g
same,concentration at 1 h,"[3]; zebrafish (Danio rerio) larvae, whole-body larvae homogenate, other: immersion in compound-containing medium, 10 mM, Measured concentration in larvae whole-body, VPN/VPA 10 mM, 1 h immersion",33900 ng/g and 235 µM
same,"therapeutic plasma concentration, total",[4],300 to 700 µM
same,"therapeutic plasma concentration, unbound",[4],30 to 100 µM
same,efficacy against PTZ-induced seizure-like movements,"[5]; VPN 5 mM, 1 h",~ 80%
same,activity of PTZ-treated larvae vs vehicle-PTZ group,"[5]; VPN 5 mM, 18 h immersion, p < 0.001",decreased the activity
same,oral bioavailability,[6],~ 90%
same,locomotor activity without PTZ vs vehicle,"[7]; VPN 5 mM, 18 h",significant inhibition of the locomotor activity
pteryxin [PTX],effect on the LAT1-mediated leucine transport,[8],did not show any effect
same,decrease of actinteg values of PTZ-treated larvae,[5]; PTX 10 µM,37.6%
same,decrease of locomotor activity of PTZ-treated larvae,"[5]; PTX 10 µM, 18 h immersion",61.4%
same,decrease of actinteg values of PTZ-treated larvae,[5]; PTX 15 µM,57.6%
same,decrease of locomotor activity of PTZ-treated larvae,"[5]; PTX 15 µM, 18 h immersion",73.3%
same,decrease of actinteg values of PTZ-treated larvae,[5]; PTX 20 µM,~ 70% and 70.6%
same,decrease of locomotor activity of PTZ-treated larvae,"[5]; PTX 20 µM, 18 h immersion",78.2%
same,average movements without PTZ vs vehicle,"[7]; PTX 5 µM, 1 h",increased the average movements
same,locomotor activity without PTZ vs vehicle,"[7]; PTX 20 µM, 1 h",decreased locomotor activity
same,locomotor activity without PTZ vs vehicle,"[7]; PTX 20 µM, 18 h",significant inhibition of the locomotor activity
same,decrease of some AA levels vs control,[9],up to 60%
same,decrease in the PSD values,[10],99.8%
